# Source: patent publication US10407409B2, “6-(5-hydroxy-1H-pyrazol-1-yl)nicotinamide inhibitors of PHD” (Takeda Pharmaceutical Company Limited, priority 2013, dated 2019)
# What was measured:
# [1] = test system: HIF1a protein in H9c2 rat cardiomyocytes; assay: Cell-based HIF-alpha stabilization assay (inhibition of PHD in cells); details: 24 hrs compound incubation, HIF1a protein by ELISA; for EC50: Rattus norvegicus, H9c2, 24 h, read-out: Inhibition of PHD in cells (pEC50) (converted)
# Outline: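 HIF1a stabilization was measured by ELISA on lysates of H9c2 rat cardiomyocytes after 24 h exposure to 11 serial compound concentrations, expressed relative to the desferrioxamine maximum. Curve fits gave EC50. EC50pos denotes the concentration producing half the desferrioxamine maximal response.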
# [2] = biological target: PHD2 enzyme (residues 181-417) (Homo sapiens (Human), UniProt Q9GZT9); assay: Inhibition of PHD enzyme (LC/MS peptide hydroxylation assay); format: biochemical; details: PHD2 (residues 181-417) 5 nM, 60 min pre-incubation; -log(IC50), IC50 molar
# Outline: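 Hydroxylated peptide quantified by LC/MS after 60 min turnover of 1 uM biotinylated peptide with 2 uM 2-oxoglutarate and 1 mM ascorbate, stopped by excess tight-binding inhibitor. Beforehand, 5 nM enzyme and compound were preincubated 60 min at RT, pH 7.3 HEPES/KCl/TCEP/FeCl2/BSA buffer. Values as pIC50 (−log molar IC50).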
# Chain of PHD2 enzyme (residues 181-417) (Q9GZT9 181-417): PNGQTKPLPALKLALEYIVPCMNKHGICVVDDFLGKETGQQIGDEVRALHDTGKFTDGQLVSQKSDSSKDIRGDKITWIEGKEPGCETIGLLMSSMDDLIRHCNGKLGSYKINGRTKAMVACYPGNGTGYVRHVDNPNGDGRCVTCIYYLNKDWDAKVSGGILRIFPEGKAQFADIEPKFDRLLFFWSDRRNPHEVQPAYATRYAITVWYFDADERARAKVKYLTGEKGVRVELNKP
SMILES,EC50 [1],PHD Inhibition (pIC50) [2],Inhibition of PHD in cells (pEC50) [1]
"COCCCN(C)C(=O)c1ccc(-n2ncc(-c3ccc(C#N)cc3C)c2O)nc1 [Example 251, 6-(4-(4-cyano-2-methylphenyl)-5-hydroxy-1H-pyrazol-1-yl)-N-(3-methoxypropyl)-N-methylnicotinamide]",324 nM,8.2,
"COCC1CCN(C(=O)c2ccc(-n3ncc(-c4ccc(C#N)cc4C)c3O)nc2)C1 (stereo not shown) [Example 252, 4-(5-hydroxy-1-(5-(3-(methoxymethyl)pyrrolidine-1-carbonyl)pyridin-2-yl)-1H-pyrazol-4-yl)-3-methylbenzonitrile]",263 nM,8.3,
"COc1cc(-c2cnn(-c3ccc(C(=O)NCC4CCOCC4)cn3)c2O)ccc1C#N [Example 253, 6-(4-(4-cyano-3-methoxyphenyl)-5-hydroxy-1H-pyrazol-1-yl)-N-((tetrahydro-2H-pyran-4-yl)methyl)nicotinamide]",5620 nM,8.3,
"COc1cc(-c2cnn(-c3ccc(C(=O)NCC4CCOCC4)cn3)c2O)c(F)cn1 [Example 254, 6-(4-(5-fluoro-2-methoxypyridin-4-yl)-5-hydroxy-1H-pyrazol-1-yl)-N-((tetrahydro-2H-pyran-4-yl)methyl)nicotinamide]",2750 nM,8,
"COc1nccc(-c2cnn(-c3ccc(C(=O)NCC4CCOCC4)cn3)c2O)c1OC [Example 255, 6-(4-(2,3-dimethoxypyridin-4-yl)-5-hydroxy-1H-pyrazol-1-yl)-N-((tetrahydro-2H-pyran-4-yl)methyl)nicotinamide]",1450 nM,7.6,
"N#Cc1ccc(-c2cnn(-c3ccc(C(=O)N[C@H]4CC[C@@H](O)C4)cn3)c2O)cc1 [Example 258, 6-(4-(4-cyanophenyl)-5-hydroxy-1H-pyrazol-1-yl)-N-((1s,3r)-3-hydroxycyclopentyl)nicotinamide]",813 nM,7.44,
"N#Cc1ccc(-c2cnn(-c3ccc(C(=O)N[C@H]4CC[C@H](O)C4)cn3)c2O)cc1 [Example 259, 6-(4-(4-cyanophenyl)-5-hydroxy-1H-pyrazol-1-yl)-N-((1s,3s)-3-hydroxycyclopentyl)nicotinamide]",1000 nM,7.39,
"CC1(CNC(=O)c2ccc(-n3ncc(-c4ccc(C#N)cc4)c3O)nc2)COC1 [Example 261, 6-(4-(4-cyanophenyl)-5-hydroxy-1H-pyrazol-1-yl)-N-((3-methyloxetan-3-yl)methyl)nicotinamide]",1120 nM,7.39,
"CC1CC1NC(=O)c1ccc(-n2ncc(-c3ccc(C#N)cc3)c2O)nc1 (stereo not shown) [Example 262, 6-(4-(4-cyanophenyl)-5-hydroxy-1H-pyrazol-1-yl)-N-(2-methylcyclopropyl)nicotinamide]",525 nM,7.38,
"N#Cc1ccc(-c2cnn(-c3ccc(C(=O)NCC4(F)CCCCC4)cn3)c2O)cc1 [Example 263, 6-(4-(4-cyanophenyl)-5-hydroxy-1H-pyrazol-1-yl)-N-((1-fluorocyclohexyl)methyl)nicotinamide]",1230 nM,7.22,
"N#Cc1ccc(-c2cnn(-c3ccc(C(=O)NCC4CC(F)(F)C4)cn3)c2O)cc1 [Example 264, 6-(4-(4-cyanophenyl)-5-hydroxy-1H-pyrazol-1-yl)-N-((3,3-difluorocyclobutyl)methyl)nicotinamide]",1620 nM,6.99,
"N#Cc1ccc(-c2cnn(-c3ccc(C(=O)NC4CC(F)(F)C4)cn3)c2O)cc1 [Example 265, 6-(4-(4-cyanophenyl)-5-hydroxy-1H-pyrazol-1-yl)-N-(3,3-difluorocyclobutyl)nicotinamide]",6610 nM,6.77,
"CCNC(=O)c1ccc(-n2ncc(-c3ccc(C#N)cc3)c2O)nc1 [Example 266, 6-(4-(4-cyanophenyl)-5-hydroxy-1H-pyrazol-1-yl)-N-ethylnicotinamide]",1910 nM,7.23,
"CCCNC(=O)c1ccc(-n2ncc(-c3ccc(C#N)cc3)c2O)nc1 [Example 267, 6-(4-(4-cyanophenyl)-5-hydroxy-1H-pyrazol-1-yl)-N-propylnicotinamide]",708 nM,7.36,
"CN(C)CCNC(=O)c1ccc(-n2ncc(-c3ccc(C#N)cc3)c2O)nc1 [Example 268, 6-(4-(4-cyanophenyl)-5-hydroxy-1H-pyrazol-1-yl)-N-(2-(dimethylamino)ethyl)nicotinamide]",1950 nM,6.32,
"CN(C)CCCNC(=O)c1ccc(-n2ncc(-c3ccc(C#N)cc3)c2O)nc1 [Example 269, 6-(4-(4-cyanophenyl)-5-hydroxy-1H-pyrazol-1-yl)-N-(3-(dimethylamino)propyl)nicotinamide]",1950 nM,6.82,
"CN1CCC(NC(=O)c2ccc(-n3ncc(-c4ccc(C#N)cc4)c3O)nc2)CC1 [Example 270, 6-(4-(4-cyanophenyl)-5-hydroxy-1H-pyrazol-1-yl)-N-(1-methylpiperidin-4-yl)nicotinamide]",1000 nM,7.34,
"CN1CCC(CNC(=O)c2ccc(-n3ncc(-c4ccc(C#N)cc4)c3O)nc2)CC1 [Example 271, 6-(4-(4-cyanophenyl)-5-hydroxy-1H-pyrazol-1-yl)-N-((1-methylpiperidin-4-yl)methyl)nicotinamide]",1550 nM,6.98,
"CNC(=O)c1cnc(-n2ncc(-c3ccc(C#N)cc3)c2O)cc1C [Example 273, 6-(4-(4-cyanophenyl)-5-hydroxy-1H-pyrazol-1-yl)-N,4-dimethylnicotinamide]",9330 nM,7.06,
"CCNC(=O)c1cnc(-n2ncc(-c3ccc(C#N)cc3)c2O)cc1C [Example 274, 6-(4-(4-cyanophenyl)-5-hydroxy-1H-pyrazol-1-yl)-N-ethyl-4-methylnicotinamide]",6460 nM,7.03,
"Cc1cc(-n2ncc(-c3ccc(C#N)cc3)c2O)ncc1C(=O)NC1CC1 [Example 275, 6-(4-(4-cyanophenyl)-5-hydroxy-1H-pyrazol-1-yl)-N-cyclopropyl-4-methylnicotinamide]",3800 nM,7.03,
"Cc1cc(-n2ncc(-c3ccc(C#N)cc3)c2O)ncc1C(=O)N[C@H]1CCOC1 [Example 277, (S)-6-(4-(4-cyanophenyl)-5-hydroxy-1H-pyrazol-1-yl)-4-methyl-N-(tetrahydrofuran-3-yl)nicotinamide]",7080 nM,6.89,
"Cc1cc(-n2ncc(-c3ccc(C#N)cc3)c2O)ncc1C(=O)N[C@H]1CC[C@@H](O)CC1 [Example 278, 6-(4-(4-cyanophenyl)-5-hydroxy-1H-pyrazol-1-yl)-N-((1s,4s)-4-hydroxycyclohexyl)-4-methylnicotinamide]",3240 nM,7.05,
"Cc1cc(-n2ncc(-c3ccc(C#N)cc3)c2O)ncc1C(=O)NCCC1CCCOC1 (stereo not shown) [Example 279, 6-(4-(4-cyanophenyl)-5-hydroxy-1H-pyrazol-1-yl)-4-methyl-N-(2-(tetrahydro-2H-pyran-3-yl)ethyl)nicotinamide]",2630 nM,7.1,
"O=C(NCc1ccccc1)c1ccc(-n2ncc(-c3ccccn3)c2O)cc1 [Example 280, N-benzyl-4-(5-hydroxy-4-(pyridin-2-yl)-1H-pyrazol-1-yl)benzamide]",50100 nM,5.69,
"N#Cc1ccc(-c2cnn(-c3ccc(C(=O)NCc4ccccc4)cn3)c2O)cc1 [Example 281, N-benzyl-6-(4-(4-cyanophenyl)-5-hydroxy-1H-pyrazol-1-yl)nicotinamide]",257 nM,7.37,
"CCCN1CCN(C(=O)c2ccc(-n3ncc(-c4ccc(C#N)cc4C)c3O)nc2)CC1 [Example 283, 4-(5-hydroxy-1-(5-(4-propylpiperazine-1-carbonyl)pyridin-2-yl)-1H-pyrazol-4-yl)-3-methylbenzonitrile]",,8.60,5.72
"CO[C@H]1CC[C@@H](NC(=O)c2ccc(-n3ncc(-c4ccc(C#N)cc4F)c3O)nc2)CC1 [Example 284, 6-(4-(4-cyano-2-fluorophenyl)-5-hydroxy-1H-pyrazol-1-yl)-N-((1 s,4s)-4-methoxycyclohexyl)nicotinamide]",1290 nM,8.21,
"COCCCCNC(=O)c1ccc(-n2ncc(-c3ccc(C#N)cc3F)c2O)nc1 [Example 285, 6-(4-(4-cyano-2-fluorophenyl)-5-hydroxy-1H-pyrazol-1-yl)-N-(4-methoxybutyl)nicotinamide]",933 nM,8.48,
